Several values for one entry are separate records, joined by “and”; a condition that tells them apart may be missing. Equal values may be shown once.

The assay in a line: Cell-based activity under Prompt Conditions: Cell-based activity under Prompt Conditions. Rat or human NHE3-mediated Na+-dependent H+ antiport was measured using a modification of the pH sensitive dye method originally reported by Paradiso (PNAS USA. 81:7436-7440, 1984). Opossum kidney (OK) cells were obtained from the ATCC and propagated per their instructions. The rat NHE3 gene (GenBank M85300) or the human NHE3 gene (GenBank NM_004174.1) was introduced into OK cells via electroporation, and cells were seeded into 96 well plates and grown overnight. Medium was aspirated from the wells, cells were washed twice with NaCl-HEPES buffer (100 mM NaCl, 50 mM HEPES, 10 mM glucose, 5 mM KCl, 2 mM CaCl2, 1 mM MgCl2, pH 7.4), then incubated for 30 min at room temperature with NH4Cl-HEPES buffer (20 mM NH4Cl, 80 mM NaCl, 50 mM HEPES, 5 mM KCl, 2 mM CaCl2, 1 mM MgCl2, pH 7.4) containing 5 μM bis(acetoxymethyl) 3,3′-(3′,6′-bis(acetoxymethoxy)-5-((acetoxymethoxy)carbonyl)-3-oxo-3H-spiro[isobenzofuran-1,9′-xanthene]-2′,7′-diyl)dipropanoate (BCECF-AM).Cells were washed twice with Ammonium free, Na+-free HEPES (100 mM choline, 50 mM HEPES, 10 mM glucose, 5 mM KCl, 2 mM CaCl2, 1 mM MgCl2, pH 7.4) and incubated in the same buffer for 10 minutes at room temperature to lower intracellular pH. […] Initial rates were plotted as the average 2 or more replicates, and pIC50 values were estimated using GraphPad Prism.
On to `CN1Cc2c(Cl)cc(Cl)cc2C(c2cccc(S(N)(=O)=O)c2)C1` (centres undefined), for which the half-inhibitory concentration (IC50) is 251 nM.

`NCCOCCOCCN1CCN(c2ccc(-c3nc(N=C(N)N)nc4ccc(Cl)cc34)cc2)CC1`: the half-maximal inhibitory concentration (IC50) is 100 nM.

Consider `N=C(N)Nc1nc(-c2ccc(N3CCN(CCOCCOCCOCCNC(=O)NCCOCCOCCNC(=O)NCCOCCOCCOCCN4CCN(c5ccc(-c6nc(NC(=N)N)nc7ccc(Cl)cc67)cc5)CC4)CC3)cc2)c2cc(Cl)ccc2n1`, for which the half-maximal inhibitory concentration (IC50) was 50.1 nM.

`CN1Cc2c(Cl)cc(Cl)cc2[C@H](c2cccc(S(=O)(=O)NCCOCCOCCOCCNC(=O)CN(CC(=O)NCCOCCOCCOCCNS(=O)(=O)c3cccc([C@@H]4CN(C)Cc5c(Cl)cc(Cl)cc54)c3)CC(=O)NCCOCCOCCOCCNS(=O)(=O)c3cccc([C@@H]4CN(C)Cc5c(Cl)cc(Cl)cc54)c3)c2)C1`: the IC50 is 79.4 nM.

In the case of `C/C(=C\c1cc(F)c(Oc2ccc(S(=O)(=O)NCCOCCOCCOCCNC(=O)N3CCN(C(=O)NCCOCCOCCOCCNS(=O)(=O)c4ccc(Oc5c(F)cc(/C=C(\C)C(=O)N=C(N)N)cc5F)cc4)CC3)cc2)c(F)c1)C(=O)N=C(N)N`, the IC50 is 20 nM.

In the case of `NC(N)=Nc1nc(-c2ccc(N3CCN(CCOCCOCCNC(=O)[C@H](O)[C@@H](O)C(=O)NCCOCCOCCN4CCN(c5ccc(-c6nc(N=C(N)N)nc7ccc(Cl)cc67)cc5)CC4)CC3)cc2)c2cc(Cl)ccc2n1`, the IC50 was 79.4 nM.

Turning to `NCCOCCOCCN1CCN(c2cccc(-c3nc(N=C(N)N)nc4ccc(Cl)cc34)c2)CC1`, the IC50 is 200 nM.

With `N=C(N)Nc1nc(-c2ccc(S(=O)(=O)NCCOCCOCCN)cc2)c2cc(Cl)ccc2n1`, the 50% inhibitory concentration (IC50) is 126 nM.

As for `N=C(N)Nc1nc(-c2cccc(S(=O)(=O)NCCOCCOCCN)c2)c2cc(Cl)ccc2n1`, the IC50 is 501 nM.

As to `C/C(=C\c1cc(F)c(Oc2ccc(S(=O)(=O)NCCOCCOCCOCCN)cc2)c(F)c1)C(=O)N=C(N)N`, the IC50 was 126 nM.

As for `NCCOCCOCCOc1ccc(-c2nc(N=C(N)N)nc3ccc(Cl)cc23)cc1`, the IC50 was 112 nM.

As for `N=C(N)Nc1nc(-c2cccc(S(=O)(=O)NCCOCCOCCOCCN)c2)c2cc(Cl)ccc2n1`, the concentration for half-maximal inhibition (IC50) is 794 nM.

For `C/C(=C\c1cc(F)c(Oc2ccc(S(=O)(=O)NCCOCCOCCOCCNC(=O)OCCOCCOCCOC(=O)NCCOCCOCCOCCNS(=O)(=O)c3ccc(Oc4c(F)cc(/C=C(\C)C(=O)N=C(N)N)cc4F)cc3)cc2)c(F)c1)C(=O)N=C(N)N`, the IC50 was 31.6 nM.

Take `CN(CC(=O)NCCOCCOCCNS(=O)(=O)c1ccc(O[C@H]2c3ccccc3C[C@@H]2N2CCCCC2)cc1)CC(=O)NCCOCCOCCNS(=O)(=O)c1ccc(O[C@H]2c3ccccc3C[C@@H]2N2CCCCC2)cc1`: the IC50 was 35.5 nM.

Take `N=C(N)Nc1nc(-c2ccc(OCCOCCOCCOCCN)cc2)c2cc(Cl)ccc2n1`: the concentration for half-maximal inhibition (IC50) is 31.6 nM.

In the case of `NCCOCCOCCOCCN1CCN(c2ccc(-c3nc(N=C(N)N)nc4ccc(Cl)cc34)cc2)CC1`, the IC50 was 56.2 nM and 126 nM.

Take `CN1Cc2c(Cl)cc(Cl)cc2[C@H](c2cccc(S(=O)(=O)NCCOCCOCCOCCN)c2)C1`: the IC50 was 45.7 nM.

Take `C/C(=C\c1cc(F)c(Oc2ccc(S(=O)(=O)NCCOCCOCCOCCNC(=O)CN(CCN(CC(=O)O)CC(=O)NCCOCCOCCOCCNS(=O)(=O)c3ccc(Oc4c(F)cc(/C=C(\C)C(=O)N=C(N)N)cc4F)cc3)CC(=O)O)cc2)c(F)c1)C(=O)N=C(N)N`: the half-inhibitory concentration (IC50) was 31.6 nM.

As for `C/C(=C\c1cc(F)c(Oc2ccc(S(=O)(=O)NCCOCCOCCOCCNC(=O)N(C)CCCCN(C)C(=O)NCCOCCOCCOCCNS(=O)(=O)c3ccc(Oc4c(F)cc(/C=C(\C)C(=O)N=C(N)N)cc4F)cc3)cc2)c(F)c1)C(=O)N=C(N)N`, the IC50 was 15.8 nM.

`CN1Cc2c(Cl)cc(Cl)cc2[C@H](c2cccc(S(=O)(=O)NCCOCCOCCOCCNC(=O)c3cc(C(=O)NCCOCCOCCOCCNS(=O)(=O)c4cccc([C@@H]5CN(C)Cc6c(Cl)cc(Cl)cc65)c4)cc(C(=O)NCCOCCOCCOCCNS(=O)(=O)c4cccc([C@@H]5CN(C)Cc6c(Cl)cc(Cl)cc65)c4)c3)c2)C1`: the IC50 was 126 nM.

Consider `CN1Cc2c(Cl)cc(Cl)cc2[C@@H](c2cccc(S(=O)(=O)NCCOCCOCCNC(=O)NCCCCNC(=O)NCCOCCOCCNS(=O)(=O)c3cccc([C@@H]4CN(C)Cc5c(Cl)cc(Cl)cc54)c3)c2)C1`, for which the IC50 was 50.1 nM and < 10000 nM.

As for `C/C(=C\c1cc(F)c(Oc2ccc(S(=O)(=O)NCCOCCOCCOCCNC(=O)[C@H](O)[C@@H](O)C(=O)NCCOCCOCCOCCNS(=O)(=O)c3ccc(Oc4c(F)cc(/C=C(\C)C(=O)N=C(N)N)cc4F)cc3)cc2)c(F)c1)C(=O)N=C(N)N`, the IC50 was 126 nM.

As for `C/C(=C\c1cc(F)c(Oc2ccc(S(=O)(=O)NCCOCCOCCOCCNCc3ccc(CNCCOCCOCCOCCNS(=O)(=O)c4ccc(Oc5c(F)cc(/C=C(\C)C(=O)N=C(N)N)cc5F)cc4)cc3)cc2)c(F)c1)C(=O)N=C(N)N`, the IC50 is 200 nM.

On to `C/C(=C\c1cc(F)c(Oc2ccc(S(=O)(=O)NCCOCCOCCOCCNC(=O)NCCCCNC(=O)NCCOCCOCCOCCNS(=O)(=O)c3ccc(Oc4c(F)cc(/C=C(\C)C(=O)N=C(N)N)cc4F)cc3)cc2)c(F)c1)C(=O)N=C(N)N`, for which the IC50 is 31.6 nM.

As for `C/C(=C\c1cc(F)c(Oc2ccc(S(=O)(=O)NCCOCCOCCOCCNC(=O)NCCOCCOCCNC(=O)NCCOCCOCCOCCNS(=O)(=O)c3ccc(Oc4c(F)cc(/C=C(\C)C(=O)N=C(N)N)cc4F)cc3)cc2)c(F)c1)C(=O)N=C(N)N`, the IC50 is 100 nM.

Regarding `NCCOCCOCCOc1cccc(-c2nc(N=C(N)N)nc3ccc(Cl)cc23)c1`, the IC50 is 224 nM.

For `COCCNS(=O)(=O)c1cccc(C2CN(C)Cc3c(Cl)cc(Cl)cc32)c1` (centres undefined), the IC50 is 200 nM.

Regarding `C/C(=C\c1cc(F)c(Oc2ccc(S(=O)(=O)NCCOCCOCCOCCNC(=O)COCC(=O)NCCOCCOCCOCCNS(=O)(=O)c3ccc(Oc4c(F)cc(/C=C(\C)C(=O)N=C(N)N)cc4F)cc3)cc2)c(F)c1)C(=O)N=C(N)N`, the IC50 is 50.1 nM.

With `CN1Cc2c(Cl)cc(Cl)cc2[C@H](c2cccc(S(=O)(=O)NCCOCCOCCOCCNC(=O)COCC(=O)NCCOCCOCCOc3cccc(-c4nc(NC(=N)N)nc5ccc(Cl)cc45)c3)c2)C1`, the IC50 is 141 nM.

Take `COCCNC(=O)CN(C)CC(=O)NCCOCCOCCNC(=O)NCCOCCOCCOCCOc1ccc(-c2nc(NC(=N)N)nc3ccc(Cl)cc23)cc1`: the IC50 is 12.6 nM.

For `CCOCCOCCOCCNC(=O)CN(C)CC(=O)NCCOCCOCCOCCNS(=O)(=O)c1ccc(O[C@H]2c3ccccc3C[C@@H]2N2CCCCC2)cc1`, the IC50 is 44.7 nM.

As for `CCOCCOCCOCCOCCC(=O)NCCOCCOCCNS(=O)(=O)c1ccc(OC2c3ccccc3C[C@@H]2N2CCCCC2)cc1` (some centres undefined), the IC50 is 50.1 nM.

Consider `CCOCCOCCOCCOCCC(=O)NCCOCCOCCOCCNS(=O)(=O)c1ccc(O[C@H]2c3ccccc3C[C@@H]2N2CCCCC2)cc1`, for which the IC50 is 35.5 nM.

As to `CNC(=O)CN(CCN(CC(=O)O)CC(=O)NCCOCCOCCNC(=O)NCCOCCOCCOCCOc1cccc(-c2nc(NC(=N)N)nc3ccc(Cl)cc23)c1)CC(=O)O`, the IC50 is 20 nM.

On to `COCCOCCOCCOCCC(=O)NCCOCCOCCOCCN1CCN(c2cccc(-c3nc(NC(=N)N)nc4ccc(Cl)cc34)c2)CC1`, for which the IC50 is 50.1 nM.

As for `CCOCCOCCOCCNC(=O)CN(CCN(CC(=O)O)CC(=O)NCCOCCOCCOCCNS(=O)(=O)c1ccc(O[C@H]2c3ccccc3C[C@@H]2N2CCCCC2)cc1)CC(=O)O`, the IC50 was 22.4 nM.

On to `COCCNC(=O)CN(C)CC(=O)NCCOCCOCCNC(=O)NCCOCCOCCOCCN1CCN(c2ccc(-c3nc(N=C(N)N)nc4ccc(Cl)cc34)cc2)CC1`, for which the IC50 is 31.6 nM.

With `COCCNC(=O)CN(C)CC(=O)NCCOCCOCCNC(=O)NCCOCCOCCOCCN1CCN(c2cccc(-c3nc(NC(=N)N)nc4ccc(Cl)cc34)c2)CC1`, the IC50 was 20 nM.

Regarding `CCNC(=O)CCOCCOCCOCCOCCOCCC(=O)NCCOCCOCCOCCN1CCN(c2ccc(-c3nc(NC(=N)N)nc4ccc(Cl)cc34)cc2)CC1`, the 50% inhibitory concentration (IC50) is 20.9 nM.

Consider `COCCOCCOCCC(=O)NCCOCCOCCOCCN1CCN(c2cccc(-c3nc(NC(=N)N)nc4ccc(Cl)cc34)c2)CC1`, for which the half-inhibitory concentration (IC50) is 135 nM.

Take `CCCOCNC(=O)NCCCCNC(=O)NCCOCCOCCNC(=O)NCCOCCOCCN1CCN(c2cccc(-c3nc(N=C(N)N)nc4ccc(Cl)cc34)c2)CC1`: the IC50 was 25.1 nM.

Take `CCOCCOCCOCCNC(=O)[C@H](O)[C@@H](O)C(=O)NCCOCCOCCOCCNS(=O)(=O)c1ccc(O[C@H]2c3ccccc3C[C@@H]2N2CCCCC2)cc1`: the IC50 was 20 nM.

Regarding `CN(CCN(CC(=O)O)CC(=O)NCCOCCOCCNC(=O)NCCOCCOCCOCCN1CCN(c2ccc(-c3nc(N=C(N)N)nc4ccc(Cl)cc34)cc2)CC1)CC(=O)O`, the IC50 was 15.8 nM.

For `CN(CCN(CC(=O)O)CC(=O)NCCOCCOCCNC(=O)NCCOCCOCCOCCOc1ccc(-c2nc(NC(=N)N)nc3ccc(Cl)cc23)cc1)CC(=O)O`, the IC50 was 10 nM.

For the compound `CCCCNC(=O)NCCOCCOCCNC(=O)NCCOCCOCCOCCOc1ccc(-c2nc(NC(=N)N)nc3ccc(Cl)cc23)cc1`, the IC50 is 25.1 nM.

On to `CN(C)CC(=O)NCCOCCOCCNC(=O)NCCOCCOCCN1CCN(c2cccc(-c3nc(NC(=N)N)nc4ccc(Cl)cc34)c2)CC1`, for which the IC50 was 39.8 nM.

Regarding `CCOCCOCCOCCNC(=O)NCCCCNC(=O)NCCOCCOCCOCCNS(=O)(=O)c1ccc(O[C@H]2c3ccccc3C[C@@H]2N2CCCCC2)cc1`, the IC50 was 39.8 nM.

For `COCCNC(=O)CN(C)CC(=O)NCCOCCOCCNC(=O)NCCOCCOCCOCCOc1cccc(-c2nc(NC(=N)N)nc3ccc(Cl)cc23)c1`, the IC50 is 31.6 nM.

For the compound `CCNC(=O)CN(C)CC(=O)NCCOCCOCCOCCNS(=O)(=O)c1ccc(Oc2c(F)cc(/C=C(\C)C(=O)N=C(N)N)cc2F)cc1`, the IC50 is 316 nM.

The values are drawn from ChEMBL document CHEMBL5726876, “NHE3-binding compounds and methods for inhibiting phosphate transport” (2019).
